From patent US9527869B2, “Indolizine derivatives as phoshoinositide 3-kinases inhibitors” (CHIESI FARMACEUTICI S.P.A., priority 2014, dated 2016) come the findings set out here.

Holding throughout (assay type): biochemical
The target in one assay is T1, PI3Kα (Homo sapiens, UniProt P42336).
T1 construct: purchased Millipore Ltd (Billerica, Mass.)
Nature of the assay: In vitro determination of the PI3K enzyme inhibitory activity in the cell free assay (ADP-Glo Kinase Assay), PI3Kα. The settings on record: ATP 50 μM, read-out: PI3K alpha inhibition. Summed up:
(§1)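 Human recombinant PI3K isoforms with PI/PS lipid substrates (50 μM in 2× buffer, Tris pH 7.5, DTT) were run 60 min at room temperature. Final ATP was 50 μM for α, 100 μM for β, 30 μM for γ and 80 μM for δ. ADP formation was read by ADP-Glo luminescence, and IC50 came from a four-parameter logistic fit.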

For a further assay, the target named is T2, PI3Kδ (Homo sapiens, UniProt O00329).
T2 construct: purchased Millipore Ltd (Billerica, Mass.)
Nature of the assay: In vitro determination of the PI3K enzyme inhibitory activity in the cell free assay (ADP-Glo Kinase Assay), PI3Kδ. The settings on record: ATP 80 μM, read-out: PI3K delta inhibition. The method, boiled down:
as §1

The target in the next assay is T3, PI3Kγ (Homo sapiens, UniProt P48736).
T3 construct: purchased Millipore Ltd (Billerica, Mass.)
Nature of the assay: In vitro determination of the PI3K enzyme inhibitory activity in the cell free assay (ADP-Glo Kinase Assay), PI3Kγ. To be noted: ATP 30 μM, read-out: PI3K gamma inhibition. The method, boiled down: as §1

The target of another assay is T4, PI3Kβ (Homo sapiens, UniProt P42338).
T4 construct: purchased Millipore Ltd (Billerica, Mass.)
In words: In vitro determination of the PI3K enzyme inhibitory activity in the cell free assay (ADP-Glo Kinase Assay), PI3Kβ. The settings on record: ATP 100 μM, read-out: PI3K beta inhibition. The method, boiled down: as §1

T3 sequence (P48736 whole entry): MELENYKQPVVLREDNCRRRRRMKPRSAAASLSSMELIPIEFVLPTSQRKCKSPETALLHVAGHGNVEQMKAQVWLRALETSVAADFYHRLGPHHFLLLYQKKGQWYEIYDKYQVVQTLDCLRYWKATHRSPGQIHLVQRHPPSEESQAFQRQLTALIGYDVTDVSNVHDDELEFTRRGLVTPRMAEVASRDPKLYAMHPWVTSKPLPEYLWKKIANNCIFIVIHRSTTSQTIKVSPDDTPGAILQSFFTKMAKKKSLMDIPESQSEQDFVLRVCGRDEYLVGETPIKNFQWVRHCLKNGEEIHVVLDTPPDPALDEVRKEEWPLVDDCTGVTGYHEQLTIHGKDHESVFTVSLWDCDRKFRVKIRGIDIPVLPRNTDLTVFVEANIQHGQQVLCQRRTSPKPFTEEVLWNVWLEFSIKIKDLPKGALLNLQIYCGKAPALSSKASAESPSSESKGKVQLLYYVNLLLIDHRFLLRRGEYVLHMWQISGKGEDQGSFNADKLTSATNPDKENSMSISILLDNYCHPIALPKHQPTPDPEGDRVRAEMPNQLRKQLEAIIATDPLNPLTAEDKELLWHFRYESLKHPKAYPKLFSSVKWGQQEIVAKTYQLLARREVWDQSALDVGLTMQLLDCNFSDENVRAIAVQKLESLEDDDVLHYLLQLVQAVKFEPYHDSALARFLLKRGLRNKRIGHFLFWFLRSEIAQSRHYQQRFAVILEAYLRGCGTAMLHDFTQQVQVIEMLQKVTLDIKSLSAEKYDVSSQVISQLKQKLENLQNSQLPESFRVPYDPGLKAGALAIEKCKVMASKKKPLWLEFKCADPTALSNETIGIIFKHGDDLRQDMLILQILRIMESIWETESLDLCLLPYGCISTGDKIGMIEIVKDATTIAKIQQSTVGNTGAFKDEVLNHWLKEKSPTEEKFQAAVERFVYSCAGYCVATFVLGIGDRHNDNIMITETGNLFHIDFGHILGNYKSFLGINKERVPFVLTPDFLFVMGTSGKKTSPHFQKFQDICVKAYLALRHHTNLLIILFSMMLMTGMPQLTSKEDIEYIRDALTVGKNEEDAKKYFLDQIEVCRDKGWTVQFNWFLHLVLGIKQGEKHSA
T1 sequence (P42336 whole entry): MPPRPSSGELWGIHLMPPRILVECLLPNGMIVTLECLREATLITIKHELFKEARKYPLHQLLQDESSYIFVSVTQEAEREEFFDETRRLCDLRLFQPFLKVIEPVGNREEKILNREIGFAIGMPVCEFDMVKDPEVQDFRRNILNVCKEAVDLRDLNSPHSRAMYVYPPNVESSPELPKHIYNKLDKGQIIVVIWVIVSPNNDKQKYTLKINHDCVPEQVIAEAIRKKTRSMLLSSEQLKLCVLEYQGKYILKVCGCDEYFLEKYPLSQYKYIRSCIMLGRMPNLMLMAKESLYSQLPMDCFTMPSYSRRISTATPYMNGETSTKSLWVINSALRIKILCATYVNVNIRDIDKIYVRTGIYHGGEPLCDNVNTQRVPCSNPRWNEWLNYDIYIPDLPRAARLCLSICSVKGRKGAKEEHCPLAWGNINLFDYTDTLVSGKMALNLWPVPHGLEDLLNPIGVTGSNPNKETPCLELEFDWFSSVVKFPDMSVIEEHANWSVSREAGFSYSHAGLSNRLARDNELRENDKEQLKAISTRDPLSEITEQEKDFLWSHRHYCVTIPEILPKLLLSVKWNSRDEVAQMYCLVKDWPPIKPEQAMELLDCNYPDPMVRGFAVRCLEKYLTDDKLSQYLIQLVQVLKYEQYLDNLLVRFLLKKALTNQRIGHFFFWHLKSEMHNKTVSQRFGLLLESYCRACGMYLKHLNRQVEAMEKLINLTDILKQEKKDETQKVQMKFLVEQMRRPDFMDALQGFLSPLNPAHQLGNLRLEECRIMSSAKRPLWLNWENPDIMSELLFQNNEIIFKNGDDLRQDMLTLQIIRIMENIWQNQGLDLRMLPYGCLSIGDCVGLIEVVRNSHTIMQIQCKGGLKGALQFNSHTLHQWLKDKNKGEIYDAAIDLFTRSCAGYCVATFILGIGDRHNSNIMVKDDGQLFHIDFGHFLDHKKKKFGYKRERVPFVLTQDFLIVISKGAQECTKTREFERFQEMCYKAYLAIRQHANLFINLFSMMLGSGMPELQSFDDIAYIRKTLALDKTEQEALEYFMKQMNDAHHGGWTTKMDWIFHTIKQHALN
T1 sequence (P27986 whole entry partner): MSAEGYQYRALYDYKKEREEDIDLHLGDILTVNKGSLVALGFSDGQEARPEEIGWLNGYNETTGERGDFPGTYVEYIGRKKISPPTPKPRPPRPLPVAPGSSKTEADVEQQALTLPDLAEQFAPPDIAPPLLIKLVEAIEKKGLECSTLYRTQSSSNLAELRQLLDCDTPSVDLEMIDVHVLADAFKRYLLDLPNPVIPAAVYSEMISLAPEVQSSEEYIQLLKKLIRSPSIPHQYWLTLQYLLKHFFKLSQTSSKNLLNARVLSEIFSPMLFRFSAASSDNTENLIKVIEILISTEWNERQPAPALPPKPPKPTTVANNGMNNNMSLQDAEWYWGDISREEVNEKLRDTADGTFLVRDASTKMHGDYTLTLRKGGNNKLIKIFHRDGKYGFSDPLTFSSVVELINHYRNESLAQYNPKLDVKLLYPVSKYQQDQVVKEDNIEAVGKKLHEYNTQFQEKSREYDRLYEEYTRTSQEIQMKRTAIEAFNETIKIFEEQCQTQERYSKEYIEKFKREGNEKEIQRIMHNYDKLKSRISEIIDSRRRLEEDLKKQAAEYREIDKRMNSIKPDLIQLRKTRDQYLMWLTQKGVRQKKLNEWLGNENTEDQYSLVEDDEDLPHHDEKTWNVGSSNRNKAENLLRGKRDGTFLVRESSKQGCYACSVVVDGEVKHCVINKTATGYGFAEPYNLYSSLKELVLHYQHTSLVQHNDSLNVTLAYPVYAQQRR
T4 sequence (P42338 whole entry): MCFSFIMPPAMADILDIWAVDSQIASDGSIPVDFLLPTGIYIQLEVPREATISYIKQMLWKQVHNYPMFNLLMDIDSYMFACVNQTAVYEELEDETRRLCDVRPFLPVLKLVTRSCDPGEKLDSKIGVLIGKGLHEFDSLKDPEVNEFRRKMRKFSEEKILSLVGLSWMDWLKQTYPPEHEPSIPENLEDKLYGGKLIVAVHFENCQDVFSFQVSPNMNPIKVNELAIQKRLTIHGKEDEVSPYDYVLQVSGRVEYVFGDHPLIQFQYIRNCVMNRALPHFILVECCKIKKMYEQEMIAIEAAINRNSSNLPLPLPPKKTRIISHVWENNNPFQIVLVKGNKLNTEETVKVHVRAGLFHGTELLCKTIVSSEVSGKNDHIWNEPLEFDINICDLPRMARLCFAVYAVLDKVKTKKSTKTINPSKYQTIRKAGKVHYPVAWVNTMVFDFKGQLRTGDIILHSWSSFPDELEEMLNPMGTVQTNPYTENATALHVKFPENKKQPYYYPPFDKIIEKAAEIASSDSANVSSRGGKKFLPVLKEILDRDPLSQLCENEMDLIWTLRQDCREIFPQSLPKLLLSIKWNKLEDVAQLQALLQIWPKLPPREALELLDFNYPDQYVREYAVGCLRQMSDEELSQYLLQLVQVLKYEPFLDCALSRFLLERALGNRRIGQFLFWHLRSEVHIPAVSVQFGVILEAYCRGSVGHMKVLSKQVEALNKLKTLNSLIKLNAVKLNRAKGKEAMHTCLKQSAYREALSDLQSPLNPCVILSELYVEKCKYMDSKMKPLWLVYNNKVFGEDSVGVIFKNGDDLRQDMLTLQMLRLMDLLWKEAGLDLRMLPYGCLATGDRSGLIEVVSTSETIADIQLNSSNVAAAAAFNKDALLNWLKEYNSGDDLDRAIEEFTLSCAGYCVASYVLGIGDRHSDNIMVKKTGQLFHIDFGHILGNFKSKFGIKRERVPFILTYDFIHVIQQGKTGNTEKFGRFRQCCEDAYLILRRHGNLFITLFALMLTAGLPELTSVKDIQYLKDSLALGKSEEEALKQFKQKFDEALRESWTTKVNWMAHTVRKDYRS
T4 sequence (P27986 whole entry partner): as the sequence (P27986 whole entry partner) above
T2 sequence (O00329 whole entry): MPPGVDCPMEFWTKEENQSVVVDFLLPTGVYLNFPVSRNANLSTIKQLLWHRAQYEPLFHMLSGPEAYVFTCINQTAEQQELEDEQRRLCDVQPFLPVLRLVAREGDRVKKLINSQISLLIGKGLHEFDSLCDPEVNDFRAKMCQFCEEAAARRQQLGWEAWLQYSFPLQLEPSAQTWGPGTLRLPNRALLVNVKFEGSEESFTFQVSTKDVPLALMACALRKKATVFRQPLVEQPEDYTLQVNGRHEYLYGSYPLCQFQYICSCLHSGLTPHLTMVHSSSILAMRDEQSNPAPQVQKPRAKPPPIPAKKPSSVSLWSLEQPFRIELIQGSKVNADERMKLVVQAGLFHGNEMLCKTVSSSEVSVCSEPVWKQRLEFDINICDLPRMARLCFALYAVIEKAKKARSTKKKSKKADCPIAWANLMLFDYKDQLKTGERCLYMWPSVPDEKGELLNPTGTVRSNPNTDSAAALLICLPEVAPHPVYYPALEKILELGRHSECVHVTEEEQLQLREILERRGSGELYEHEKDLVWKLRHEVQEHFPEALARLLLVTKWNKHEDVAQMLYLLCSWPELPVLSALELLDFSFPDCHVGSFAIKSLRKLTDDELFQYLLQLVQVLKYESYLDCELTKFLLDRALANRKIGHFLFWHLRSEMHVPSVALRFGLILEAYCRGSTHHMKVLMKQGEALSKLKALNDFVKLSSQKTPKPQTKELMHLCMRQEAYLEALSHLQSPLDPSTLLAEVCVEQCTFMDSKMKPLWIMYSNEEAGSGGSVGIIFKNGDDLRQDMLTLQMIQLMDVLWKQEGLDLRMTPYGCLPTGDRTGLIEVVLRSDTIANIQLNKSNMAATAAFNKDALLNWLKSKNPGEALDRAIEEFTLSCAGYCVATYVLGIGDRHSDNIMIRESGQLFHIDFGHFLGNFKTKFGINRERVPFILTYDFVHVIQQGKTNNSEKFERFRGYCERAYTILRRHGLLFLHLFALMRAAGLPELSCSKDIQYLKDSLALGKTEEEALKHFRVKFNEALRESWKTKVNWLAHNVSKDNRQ
T2 sequence (P27986 whole entry partner): as the sequence (P27986 whole entry partner) above

With `Cc1cc(-c2c(C(C)n3nc(-c4cncc(O)c4)c4c(N)ncnc43)cc3ccccn23)ccn1` (centres unmarked) [Example 107, 5-(4-amino-1-{1-[3-(2-methylpyridin-4-yl)indolizin-2-yl]ethyl}-1H-pyrazolo[3,4-d]pyrimidin-3-yl)pyridin-3-ol], the IC50 was above 1000 nM at PI3Kα, below 10 nM at PI3Kδ, 10 to 1000 nM at PI3Kγ and 10 to 1000 nM on PI3Kβ.

For `CC(c1cc2ccccn2c1-c1ccc(CN2CCOCC2)cn1)n1nc(-c2cc(O)cc(F)c2)c2c(N)ncnc21` (centres unmarked) [Example 108, 3-[4-amino-1-(1-{3-[5-(morpholin-4-ylmethyl)pyridin-2-yl]indolizin-2-yl}ethyl)-1H-pyrazolo[3,4-d]pyrimidin-3-yl]-5-fluorophenol], the IC50 at PI3Kα was above 1000 nM; on PI3Kδ, below 10 nM; at PI3Kγ, above 1000 nM; at PI3Kβ, 10 to 1000 nM.

Regarding `CC(c1cc2ccccn2c1-c1ccc(CN(C)C)cn1)n1nc(-c2cc(O)cc(F)c2)c2c(N)ncnc21` (centres unmarked) [Example 109, 3-{4-amino-1-[1-(3-{5-[(dimethylamino)-methyl]pyridin-2-yl}indolizin-2-yl)ethyl]-1H-pyrazolo[3,4-d]pyrimidin-3-yl}-5-fluorophenol], the IC50 was above 1000 nM at PI3Kα, 10 to 1000 nM at PI3Kδ, above 1000 nM at PI3Kγ and 10 to 1000 nM on PI3Kβ.

Turning to `CC(c1cc2ccccn2c1-c1cccc(CN2CCOCC2)n1)n1nc(-c2cc(O)cc(F)c2)c2c(N)ncnc21` (centres unmarked) [Example 110, 3-[4-amino-1-(1-{3-[6-(morpholin-4-ylmethyl)pyridin-2-yl]indolizin-2-yl}ethyl)-1H-pyrazolo[3,4-d]-pyrimidin-3-yl]-5-fluorophenol], the IC50 is above 1000 nM on PI3Kα, below 10 nM at PI3Kδ, above 1000 nM on PI3Kγ and 10 to 1000 nM on PI3Kβ.

For the compound `CC(c1cc2ccccn2c1-c1cc(CN2CCOCC2)ccn1)n1nc(-c2cc(O)cc(F)c2)c2c(N)ncnc21` (centres unmarked) [Example 111, 3-[4-amino-1-(1-{3-[4-(morpholin-4-ylmethyl)pyridin-2-yl]indolizin-2-yl}ethyl)-1H-pyrazolo[3,4-d]-pyrimidin-3-yl]-5-fluorophenol], the IC50 is above 1000 nM on PI3Kα, below 10 nM on PI3Kδ, 10 to 1000 nM at PI3Kγ and 10 to 1000 nM at PI3Kβ.

Take `CC(c1cc2ccccn2c1-c1cc(CN(C)C)ccn1)n1nc(-c2cc(O)cc(F)c2)c2c(N)ncnc21` (centres unmarked) [Example 112, 3-{4-amino-1-[1-(3-{4-[(dimethylamino)-methyl]pyridin-2-yl}indolizin-2-yl)-ethyl]-1H-pyrazolo[3,4-d]pyrimidin-3-yl}-5-fluorophenol]: the IC50 at PI3Kα is 10 to 1000 nM; on PI3Kδ, below 10 nM; on PI3Kγ it was 10 to 1000 nM; at PI3Kβ, 10 to 1000 nM.

Take `CC(c1cc2ccccn2c1-c1ccc(CN2CCCC2)cn1)n1nc(-c2cc(O)cc(F)c2)c2c(N)ncnc21` (centres unmarked) [Example 113, 3-[4-amino-1-(1-{3-[5-(pyrrolidin-1-ylmethyl)pyridin-2-yl]indolizin-2-yl}ethyl)-1H-pyrazolo[3,4-d]pyrimidin-3-yl]-5-fluorophenol]: the IC50 at PI3Kα is above 1000 nM; at PI3Kδ it was below 10 nM; at PI3Kγ it was above 1000 nM; on PI3Kβ it was 10 to 1000 nM.

In the case of `CC(c1cc2ccccn2c1-c1ccc(CN2CCN(C)CC2)cn1)n1nc(-c2cc(O)cc(F)c2)c2c(N)ncnc21` (centres unmarked) [Example 114, 3-{4-amino-1-[1-(3-{5-[(4-methylpiperazin-1-yl)methyl]pyridin-2-yl}indolizin-2-yl)ethyl]-1H-pyrazolo-[3,4-d]pyrimidin-3-yl}-5-fluorophenol], the IC50 at PI3Kα is above 1000 nM; on PI3Kδ, below 10 nM; at PI3Kγ it was above 1000 nM; on PI3Kβ it was 10 to 1000 nM.

As to `CC(c1cc2ccccn2c1-c1cccc(CN2CCN(C)CC2)n1)n1nc(-c2cc(O)cc(F)c2)c2c(N)ncnc21` (centres unmarked) [Example 115, 3-{4-amino-1-[1-(3-{6-[(4-methylpiperazin-1-yl)methyl]pyridin-2-yl}indolizin-2-yl)ethyl]-1H-pyrazolo-[3,4-d]pyrimidin-3-yl}-5-fluorophenol], the IC50 at PI3Kα, on PI3Kδ, on PI3Kγ and at PI3Kβ was 10 to 1000 nM throughout.

As for `CC(c1cc2ccccn2c1-c1cc(CN2CCN(C)CC2)ccn1)n1nc(-c2cc(O)cc(F)c2)c2c(N)ncnc21` (centres unmarked) [Example 116, 3-{4-amino-1-[1-(3-{4-[(4-methylpiperazin-1-yl)methyl]pyridin-2-yl}indolizin-2-yl)ethyl]-1H-pyrazolo-[3,4-d]pyrimidin-3-yl}-5-fluorophenol], the IC50 was 10 to 1000 nM at PI3Kα, below 10 nM on PI3Kδ, 10 to 1000 nM on PI3Kγ and 10 to 1000 nM on PI3Kβ.

As to `CC(c1cc2ccccn2c1-c1ccc(CN(CCO)CCO)cn1)n1nc(-c2cc(O)cc(F)c2)c2c(N)ncnc21` (centres unmarked) [Example 117, 3-(4-amino-1-{1-[3-(5-{[bis(2-hydroxyethyl)amino]methyl}pyridin-2-yl)indolizin-2-yl]ethyl}-1H-pyrazolo[3,4-d]pyrimidin-3-yl)-5-fluorophenol], the IC50 on PI3Kα was above 1000 nM; at PI3Kδ, below 10 nM; at PI3Kγ, above 1000 nM; on PI3Kβ it was 10 to 1000 nM.

Take `CC(c1cc2ccccn2c1-c1ccc(OCCN2CCOCC2)cn1)n1nc(-c2cc(O)cc(F)c2)c2c(N)ncnc21` (centres unmarked) [Example 119, 3-{4-amino-1-[1-(3-{5-[2-(morpholin-4-yl)ethoxy]pyridin-2-yl}indolizin-2-yl)ethyl]-1H-pyrazolo[3,4-d]-pyrimidin-3-yl}-5-fluorophenol]: the IC50 at PI3Kα was above 1000 nM; at PI3Kδ, below 10 nM; on PI3Kγ, above 1000 nM; on PI3Kβ, 10 to 1000 nM.

`CC(c1cc2ccccn2c1-c1ccc(=O)n(CCN2CCOCC2)c1)n1nc(-c2cc(O)cc(F)c2)c2c(N)ncnc21` (centres unmarked) [Example 120, 5-(2-{1-[4-amino-3-(3-fluoro-5-hydroxyphenyl)-1H-pyrazolo[3,4-d]pyrimidin-1-yl]ethyl}-indolizin-3-yl)-1-[2-(morpholin-4-yl)ethyl]-1,2-dihydropyridin-2-one]: the IC50 on PI3Kα was above 1000 nM; at PI3Kδ, below 10 nM; on PI3Kγ it was 10 to 1000 nM; on PI3Kβ, above 1000 nM.

Take `CC(c1cc2ccccn2c1-c1ccn(CCN2CCOCC2)c(=O)c1)n1nc(-c2cc(O)cc(F)c2)c2c(N)ncnc21` (centres unmarked) [Example 121, 4-(2-{1-[4-amino-3-(3-fluoro-5-hydroxyphenyl)-1H-pyrazolo[3,4-d]pyrimidin-1-yl]ethyl}-indolizin-3-yl)-1-[2-(morpholin-4-yl)ethyl]-1,2-dihydropyridin-2-one]: the IC50 on PI3Kα is above 1000 nM; at PI3Kδ it was below 10 nM; at PI3Kγ it was 10 to 1000 nM; at PI3Kβ, 10 to 1000 nM.

With `CC(c1cc2ccccn2c1-c1ccn(CCN2CCOCC2)c(=O)c1)n1nc(-c2cncc(O)c2)c2c(N)ncnc21` (centres unmarked) [Example 122, 4-(2-{1-[4-amino-3-(5-hydroxypyridin-3-yl)-1H-pyrazolo[3,4-d]pyrimidin-1-yl]ethyl}indolizin-3-yl)-1-[2-(morpholin-4-yl)ethyl]-1,2-dihydropyridin-2-one], the IC50 at PI3Kα was above 1000 nM; at PI3Kδ it was below 10 nM; on PI3Kγ, above 1000 nM; on PI3Kβ, 10 to 1000 nM.

Consider `CC(c1cc2ccccn2c1-c1ccccc1C#N)n1nc(-c2cc(O)cc(F)c2)c2c(N)ncnc21` (centres unmarked) [Example 123, 2-(2-{1-[4-amino-3-(3-fluoro-5-hydroxyphenyl)-1H-pyrazolo[3,4-d]pyrimidin-1-yl]-ethyl}indolizin-3-yl)benzonitrile], for which the IC50 is above 1000 nM at PI3Kα, below 10 nM at PI3Kδ, above 1000 nM on PI3Kγ and 10 to 1000 nM at PI3Kβ.

As to `CC(c1c(C(F)(F)F)c2ccccn2c1-c1ccccn1)n1nc(-c2cc(O)cc(F)c2)c2c(N)ncnc21` (centres unmarked) [Example 124, 3-(4-amino-1-{1-[3-(pyridin-2-yl)-1-(trifluoromethyl)indolizin-2-yl]ethyl}-1H-pyrazolo[3,4-d]pyrimidin-3-yl)-5-fluorophenol], the IC50 is above 1000 nM on PI3Kα, below 10 nM on PI3Kδ, above 1000 nM on PI3Kγ and 10 to 1000 nM at PI3Kβ.

Take `CC(c1cc2ccccn2c1-c1ccc(C(=O)N2CCOCC2)cn1)n1nc(-c2cc(O)cc(F)c2)c2c(N)ncnc21` (centres unmarked) [Example 125, 3-[4-amino-1-(1-{3-[5-(morpholine-4-carbonyl)pyridin-2-yl]indolizin-2-yl}ethyl)-1H-pyrazolo[3,4-d]-pyrimidin-3-yl]-5-fluorophenol]: the IC50 was 10 to 1000 nM at PI3Kα, below 10 nM on PI3Kδ, 10 to 1000 nM at PI3Kγ and 10 to 1000 nM at PI3Kβ.

For `CC(c1c(C#N)c2ccccn2c1-c1ccccn1)n1nc(-c2cc(O)cc(F)c2)c2c(N)ncnc21` (centres unmarked) [Example 126, 2-{1-[4-amino-3-(3-fluoro-5-hydroxyphenyl)-1H-pyrazolo[3,4-d]pyrimidin-1-yl]-ethyl}-3-(pyridin-2-yl)indolizine-1-carbonitrile], the IC50 on PI3Kα is 10 to 1000 nM; at PI3Kδ it was below 10 nM; at PI3Kγ, 10 to 1000 nM; on PI3Kβ, 10 to 1000 nM.

For the compound `CC(c1c(C#N)c2ccccn2c1-c1cccc(CN(C)C)c1)n1nc(-c2cc(O)cc(F)c2)c2c(N)ncnc21` (centres unmarked) [Example 127, 2-{1-[4-amino-3-(3-fluoro-5-hydroxyphenyl)-1H-pyrazolo[3,4-d]pyrimidin-1-yl]-ethyl}-3-{3-[(dimethylamino)-methyl]phenyl}indolizine-1-carbonitrile], the IC50 at PI3Kα is above 1000 nM; on PI3Kδ, below 10 nM; on PI3Kγ it was above 1000 nM; on PI3Kβ, 10 to 1000 nM.
